From ChEMBL document CHEMBL1130644, “Synthesis of C-ring aromatic taxoids and evaluation of their multi-drug resistance reversing activity” (1998)

Tests used:
Type in all cases: functional, Homo sapiens
[1] = Compound was evaluated for enhancing effect on vincristine accumulation in ovarian MDR cancer cells (2780AD) at concentration of 1.0 ug/mL.
[2] = Compound was evaluated for enhancing effect on vincristine accumulation in ovarian MDR cancer cells (2780AD) at concentration of 10 ug/mL.
[3] = 62 Compound was evaluated for enhancing effect on vincristine accumulation in ovarian MDR cancer cells (2780AD) at concentration of 1.0 ug/mL.

Structure (SMILES)	Activity [1] [%]	Activity [2] [%]	Activity [3] [%]
CC1=C2[C@@H](Sc3ccccc3)[C@H](OCCOCc3ccccc3)c3cccc(O)c3[C@H](OCc3ccccc3)[C@](O)(CC1=O)C2(C)C	106	142	–
COc1cccc2c1[C@H](OCc1ccccc1)[C@]1(O)CC(=O)C(C)=C([C@@H](Sc3ccccc3)[C@@H]2OCCOCc2ccccc2)C1(C)C	106	211	–
COc1cccc2c1[C@H](O)[C@]1(O)CC(=O)C(C)=C(C[C@@H]2OCCO)C1(C)C	111	124	–
COc1cccc2c1[C@H](O)[C@]1(O)CC(O)C(C)=C([C@@H](Sc3ccccc3)[C@@H]2OCCO)C1(C)C (stereo partly specified)	–	144	109
COc1cccc2c1[C@H](O)[C@]1(O)CC(=O)C(C)=C([C@@H](Sc3ccccc3)[C@@H]2OCCOCc2ccccc2)C1(C)C	140	256	–
COc1cccc2c1[C@H](O)[C@]1(O)CC(=O)C(C)=C([C@@H](Sc3ccccc3)[C@@H]2OCCO)C1(C)C	112	171	–
COc1cccc2c1[C@H](O)[C@]1(O)CC(=O)C(C)=C([C@@H](Sc3ccccc3)[C@@H]2OCCBr)C1(C)C	93	166	–
CC1=C2[C@@H](Sc3ccccc3)[C@H](OCCO)c3cccc(O)c3[C@H](OCc3ccccc3)[C@](O)(CC1=O)C2(C)C	238	569	–
